# Assays:
# Assay type in all cases: cell-based
# human PMNs [1] = test: PMN migration in microchemotaxis chambers; design: key to PMN MIGRATION: (+) indicates the peptide induced PMN migration; (−) indicates the peptide did not induce PMN migration above levels seen in controls which contained no chemotactic stimulus
# Method: Assessment of mononuclear phagocyte (mononuclears) and polymorphonuclear leukocyte (PMN) migration. Human peripheral blood monocytes were isolated from the blood of normal healthy volunteers (30). Blood was centrifuged on Hisopaque 1077 (Sigma, St. Louis, Mo.), the mononuclear fraction was obtained, washed twice in Earle's balanced salt solution, resuspended in RPMI 1640 containing human serum (10%; Gemini, Calabasas, Calif.), plated on tissue culture dishes and incubated at 37° C. for 1-2 hrs. Nonadherent cells were removed by washing the plate twice with balanced salt solution, and adherent cells were harvested by incubation with calcium-magnesium free buffer containing EDTA (2 mM) for 15 min at 37° C., followed by extensive washing. PMNs were prepared by centrifugation over Hisopaque 1119 as per the manufacturer's protocol (Sigma). Chemotaxis assays were performed in microchemotaxis chamber (NeuroProbe, Bethesda, Md.) containing Nucleopore polycarbonate membranes (5 μm; Nucleopore, Pleasonton, Calif.). Mononuclears or PMNs were suspended in RPMI 1640 containing fetal bovine serum (1%) and 10^4 cells were added per well to the upper chamber. The chemotactic stimulus was added to the indicated chamber, and assays were performed in quadruplicate over a 3 hr or 45 min incubation period at 37° C., with mononuclear cells or PMNs, respectively, after which non-migrating cells were removed, membranes were fixed in methanol, migrating cells were visualized with Wright's stain. Cells in nine high-power fields were counted, and the mean and standard error of the mean (SEM) were determined.
# Cell migration was studied by adding MPs or PMNs (10^4 cells/well) resuspended in RPMI 1640 with fetal calf serum (1%; Gemini) to the upper wells of a microchemotaxis chamber (Neuro Probe, Bethesda, Md.) containing Nucleopore polycarbonate membranes (5 μm, Nucleopore, Pleasanton Calif.), as described (7,29-30). The chemotactic stimulus was placed in the upper or lower chamber, as indicated, and cells were allowed to migrate for 3 hrs (for MPs) or 45 min (for PMNs) at 37° C. Following removal of non-migrating cells, membranes were fixed in methanol and migrating cells were visualized with Wright's stain. Assays were performed in quadruplicate, and cells were counted in nine high-power fields in each case (mean±SEM is shown in the figures).
# Migration of PMNs and MPs—Migration was studied using cells (10^4 and 10^3 cells/well form PMNs and MPs, respectively) resuspended in RPMI 1640 with fetal calf serum (1%) added to the upper wells of a microchemotaxis chamber (Neuro Probe, Bethesda, Md.) containing Nucleopore polycarbonate membranes (5 um, Nucleopor, Pleasanton, Calif.), as described (13, 22, 35). The stimulus was placed in the upper or lower chamber, as indicated, and the cells were allowed to migrate for 3 h (for MPs) or 45 min (for PMNs) at 37° C. Following removal of nonmigrating cells, membranes were fixed in methanol, and migrating cells were visualized with Wright's stain. Assays were performed in quadruplicate, and cells were counted in […] high-power fields in each case (mean±S.E. is shown in the figures).
# human PMNs [2] = test: Release of peroxidase generating activity (myeloperoxidase) from PMNs; conditions: 60 min at 37° C.
# Method: Release of peroxidase generating activity from PMNs (myeloperoxidase) was determined by oxidation of the peroxidase substrate 3,3′,5,5′-tetramethylbenzidine (TMB; Sigma), monitored at 620 nm, as described (35). In brief, PMNs (3×10^6 cells/ml; 0.05 ml) were incubated for 60 min at 37° C. with RPMI 1640 containing fetal calf serum (1%) alone or in the presence of phorbol ester (phorbol 12-myristate 13-acetate; Sigma) or EMAP II-derived peptides. TMP and hydrogen peroxide were added for 1 min at room temperature, and the reaction was stopped with sodium azide and acetic acid. Peroxidase activity, assessed by oxidation of TMB, was determined spectrophotometrically and is reported as percent total peroxidase activity (100% is the activity observed with that number of PMNs following 60 min exposure to phorbol ester, 10 μM). A standard curve was generated by assaying peroxidase activity from different numbers of PMNs treated with phorbol ester (10 μM) under these conditions, and peroxidase activity of PMN/EMAP II peptide incubation mixtures was determined by comparison with the linear portion of the standard curve (35).
# Release of Peroxidase Generating Activity from PMNs (myeloperoxidase)—Release was determined by a previously described assay (36) which monitors oxidation of the substrate 3,3′,5,5′-tetramethylbenzidine (TMB; Sigma). […]
# human MPs = test: [Ca2+]i measurement in MPs (fura-2)
# Method: [Ca^2+1]i measurements. PMNs or MPs (2×10^7 cells in each case) were incubated with fura-2 AM (1 μM) and pluronic detergent (0.02%) for 12 min at room temperature, diluted sixfold, and incubated for a further 30 min at room temperature to allow for complete hydrolysis of the dye. Cells were then resuspended in HEPES-buffered saline at 5×10^5 cells/ml (32). For experiments using MPs, sulfinpyrazone (0.5 mM) was included at all steps to minimize both dye sequestration into intracellular organelles and dye efflux (33). Fluorescence of fura-2 was monitored at 37° C. in a thermostatically-controlled cuvette installed in a Perkin Elmer Model 650-40 fluorescense spectrophotometer. Calibration of [Ca^2+]i was performed as described (34).
# For determination of [Ca^2+] in PMSs and MPs, cells (2×10^7 in each case) were incubated with fura-2 AM (1 um) and pluronci detergent (0.02%) at room temperature, diluted 6-fold, and incubated for a further 30 min at room temperature to allow for complete hydrolysis of the dye. Cells were then resuspended in HEPES-buffered saline at 5×10^5 cells/ml (32). For MPs, sulfinpyrazone (0.5 mM) was included at all steps to minimize both dye sequestration into intracellular organelles and dye efflux (33). Fluorescence of fura-2 was monitored at 37° C. in a thermostatically controlled cuvette installed in a Perkin Elmer model 650-40 fluorescence spectrophotometer. […]
sequence,measurement,setting,value
"ASRLDLRIGRIVTAKY [residues #6-20 from EMAP II, Cys to Arg substitution at position #15, and a C-terminal Tyr]",Dose above which PMN migration reached an apparent maximum,human PMNs [1]; data not shown,> 1 nM
same,EC50,"human PMNs [1]; four experiments, PMNs from three individuals, read-out: Peptide concentration for half-maximal PMN migration",0.15 to 0.3 nM
same,Induction of PMN migration (chemotaxis),"human PMNs [1]; microchemotaxis chamber, 45 min at 37° C.",led to induction of migration
same,PMN migration at 100 pM peptide relative to fMLP at 1 μM,human PMNs [1]; peptide 100 pM,roughly comparable
same,Concentration range over which effect on PMN migration was dose-dependent,human PMNs [1]; peptide added to the lower well,10 to 10000 pM
same,PMN MIGRATION,human PMNs [1]; peptides 100 pM in each case,+
same,Release of PMN myeloperoxidase activity (peroxidase generation assay),human PMNs [2],released PMN myeloperoxidase activity
same,Rise in [Ca2+]i in MPs,human MPs,results in elevation of [Ca^2+]i
